The values that follow come from publication PMC10466331, “Fluorescence polarisation activity-based protein profiling for the identification of deoxynojirimycin-type inhibitors selective for lysosomal retaining alpha- and beta-glucosidases” (Chemical Science, 2023).

Where two headings read alike, the source gives them in different places.

What all share (format): biochemical
Assay [1] has as its target T1, recombinant human GAA (rhGAA, Myozyme) (Homo sapiens, UniProt P10253).
T1 construct: purchased Genzyme
Briefly: competitive FluoPol-ABPP assay on rhGAA with TAMRA-ABP II.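 Further: fluorescence polarization read at 540 nm excitation and 590 nm emission, background-corrected, normalized to uninhibited probe labelling as 100% and excess cyclosulfate as 0%.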 Particulars: library screen, 5 μM inhibitor, 25 nM ABP II.

Assay [2] addresses T2, human recombinant lysosomal α-glucosidase GAA (Myozyme) (Homo sapiens, UniProt P10253).
T2 construct: purchased Genzyme
Briefly: fluorogenic substrate (4MU-α-D-glucopyranoside) assay on rhGAA. Particulars: Table S2, 4-MU alpha glucoside substrate, read-out: IC50 on rhGAA.

In assay [3] the target is T3, ER α-glucosidase GANAB (from Pompe disease Fibroblast lysates) (Homo sapiens, UniProt Q14697).
T3 construct: Cellular homogenates of Pompe fibroblasts (1 mg mL^−1) were used as protein source for GANAB; endogenous in cells; host or cells: Pompe disease fibroblasts (homogenate)
T3 sequence (Q14697 29-944): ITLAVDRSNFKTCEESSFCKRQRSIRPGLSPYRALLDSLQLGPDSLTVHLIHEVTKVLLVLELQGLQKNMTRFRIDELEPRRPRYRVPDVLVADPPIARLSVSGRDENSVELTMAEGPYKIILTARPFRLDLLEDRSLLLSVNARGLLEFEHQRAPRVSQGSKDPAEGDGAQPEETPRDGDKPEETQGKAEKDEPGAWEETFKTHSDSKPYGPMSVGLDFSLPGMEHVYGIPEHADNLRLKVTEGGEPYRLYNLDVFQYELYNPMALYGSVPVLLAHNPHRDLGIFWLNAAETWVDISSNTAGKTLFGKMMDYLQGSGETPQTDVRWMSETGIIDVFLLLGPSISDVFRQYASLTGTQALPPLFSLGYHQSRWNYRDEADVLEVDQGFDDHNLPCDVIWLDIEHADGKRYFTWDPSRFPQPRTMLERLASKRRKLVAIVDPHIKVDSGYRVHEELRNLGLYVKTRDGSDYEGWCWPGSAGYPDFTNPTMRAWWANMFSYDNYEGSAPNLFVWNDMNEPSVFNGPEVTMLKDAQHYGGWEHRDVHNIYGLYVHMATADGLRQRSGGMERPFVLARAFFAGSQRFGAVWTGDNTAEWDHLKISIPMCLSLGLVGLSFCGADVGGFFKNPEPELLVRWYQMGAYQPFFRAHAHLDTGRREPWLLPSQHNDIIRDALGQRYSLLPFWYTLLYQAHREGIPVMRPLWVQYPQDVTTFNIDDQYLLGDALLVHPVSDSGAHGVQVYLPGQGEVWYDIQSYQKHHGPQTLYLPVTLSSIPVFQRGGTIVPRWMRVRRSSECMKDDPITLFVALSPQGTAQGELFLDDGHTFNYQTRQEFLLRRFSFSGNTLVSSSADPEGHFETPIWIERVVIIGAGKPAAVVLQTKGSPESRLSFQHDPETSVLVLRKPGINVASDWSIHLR
T3 sequence (P14314 15-528 partner): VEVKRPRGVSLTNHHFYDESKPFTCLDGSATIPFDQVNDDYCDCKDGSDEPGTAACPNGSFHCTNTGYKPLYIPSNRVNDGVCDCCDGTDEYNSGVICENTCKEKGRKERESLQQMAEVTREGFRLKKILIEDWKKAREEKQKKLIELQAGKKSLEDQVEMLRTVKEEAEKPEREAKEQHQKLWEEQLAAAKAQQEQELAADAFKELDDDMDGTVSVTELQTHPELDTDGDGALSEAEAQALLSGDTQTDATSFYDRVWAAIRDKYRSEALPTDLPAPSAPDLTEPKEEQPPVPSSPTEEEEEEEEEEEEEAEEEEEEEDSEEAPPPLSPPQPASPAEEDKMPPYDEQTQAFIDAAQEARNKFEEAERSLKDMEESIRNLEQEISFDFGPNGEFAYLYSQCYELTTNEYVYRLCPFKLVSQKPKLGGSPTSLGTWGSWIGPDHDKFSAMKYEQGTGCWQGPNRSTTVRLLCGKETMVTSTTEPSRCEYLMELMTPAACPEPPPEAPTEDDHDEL
In words: fluorogenic substrate (4MU-α-D-glucopyranoside) assay on GANAB in Pompe fibroblast homogenates.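 Further: inhibitor preincubated 30 min at 37 °C with homogenate, then GANAB activity read after 2 h with 3.0 mM fluorogenic substrate in McIlvaine buffer containing 0.1% BSA.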 The settings on record: Table S2, 4-MU alpha glucoside substrate, read-out: IC50 on GANAB.

Regarding `OC[C@@H]1[C@@H](O)[C@H](O)[C@@H](O)CN1CCCCCOCc1ccc(-c2ccccc2)cn1` [#ID 336], the “GAA FP% (residual FP-signal)” value in assay [1] worked out at 0.4%. For the same molecule, the IC50 (in general, the concentration that gives 50% inhibition) in assay [2] is 37 nM; in assay [3], 310 nM.

Consider `COc1ccccc1-c1ccc(COCCCCCN2C[C@H](O)[C@@H](O)[C@H](O)[C@H]2CO)cc1` [#ID 332], for which, in assay [1], the “GAA FP% (residual FP-signal)” value stood at 0.8%. For the same molecule, the results for the IC50 in assay [2] and in assay [3] were 130 nM and 1300 nM, respectively.

As to `CCCCCCOCCCCCN1C[C@H](O)[C@@H](O)[C@H](O)[C@H]1CO` [#ID 21], the “GAA FP% (residual FP-signal)” value in assay [1] amounted to 17%. The IC50 in assay [2] came out at 310 nM; in assay [3], 14800 nM.

For `OC[C@@H]1[C@@H](O)[C@H](O)[C@@H](O)CN1CCCCCOCc1ccc(-c2ccc3c(c2)OCCCO3)cc1` [#ID 304], the “GAA FP% (residual FP-signal)” value in assay [1] came out at 0.6%. Also, the IC50 in assay [2] was found to be 37 nM; in assay [3], 1200 nM.

Take `CC(C)CCCC(C)C1CCC2C3CC=C4CC(OCCCCCN5CC(O)C(O)C(O)C5CO)CCC4(C)C3CCC12C` (stereo not drawn) [#ID 22]: the “GAA FP% (residual FP-signal)” value in assay [1] is 6.5%. Moreover, the figures for the IC50 in assay [2] and in assay [3] were 170 nM and 6000 nM, respectively.

As for `OC[C@@H]1[C@@H](O)[C@H](O)[C@@H](O)CN1CCCCCOCc1ccc(-c2ccccc2)cc1` [#ID 343], the “GAA FP% (residual FP-signal)” value in assay [1] is on record as 0.6%. The IC50 in assay [2] stood at 43 nM; in assay [3] it was 250 nM.

With `CCCCCCN1C[C@H](O)[C@@H](O)[C@H](O)[C@H]1CO` [#ID 293], the “GAA FP% (residual FP-signal)” value in assay [1] (listed as 293) is 17%. The half-inhibitory concentration (IC50) worked out at 1300 nM in assay [2] (listed as 293) and 14000 nM in assay [3] (listed as 293).

Take `CCCCCCCCN1C[C@H](O)[C@@H](O)[C@H](O)[C@H]1CO` [#ID 286]: in assay [1] (listed as 286), the “GAA FP% (residual FP-signal)” value came to 9.1%. In addition, the IC50 was determined as 760 nM in assay [2] (listed as 286) and 8500 nM in assay [3] (listed as 286).

With `CCCCCCCN1C[C@H](O)[C@@H](O)[C@H](O)[C@H]1CO` [#ID 31], the “GAA FP% (residual FP-signal)” value in assay [1] was 35%. Further, the half-inhibitory concentration (IC50) in assay [2] turned out to be 910 nM; in assay [3], 60000 nM.

As for `COc1cccc(-c2ccc(COCCCCCN3C[C@H](O)[C@@H](O)[C@H](O)[C@H]3CO)cc2)c1` [#ID 306], the “GAA FP% (residual FP-signal)” value in assay [1] worked out at 0.8%. In addition, the IC50 in assay [2] amounted to 15 nM; in assay [3], 390 nM.

On to `OC[C@@H]1[C@@H](O)[C@H](O)[C@@H](O)CN1CCCCCOCc1ccc(-c2ccccc2)cc1C(F)(F)F` [#ID 118], for which the “GAA FP% (residual FP-signal)” value in assay [1] is reported as 2.9%. For the same molecule, the values for the IC50 in assay [2] and in assay [3] were 18 nM and 480 nM, respectively.

Consider `CCCCOCCCCCN1C[C@H](O)[C@@H](O)[C@H](O)[C@H]1CO` [#ID 283], for which the “GAA FP% (residual FP-signal)” value in assay [1] (listed as 283) is on record as 4.4%. Further, the 50% inhibitory concentration (IC50) was 720 nM in assay [2] (listed as 283) and 4900 nM in assay [3] (listed as 283).

On to `OC[C@@H]1[C@@H](O)[C@H](O)[C@@H](O)CN1CCCCCOCc1ccc(-c2ccccc2F)cc1` [#ID 330], for which the “GAA FP% (residual FP-signal)” value in assay [1] is 0.8%. The IC50 in assay [2] was determined as 98 nM; in assay [3], 1600 nM.

Consider `OC[C@@H]1[C@@H](O)[C@H](O)[C@@H](O)CN1CCCCCOCC1CCCCC1` [#ID 127], for which, in assay [1], the “GAA FP% (residual FP-signal)” value was 9.3%. In addition, the half-inhibitory concentration (IC50) in assay [2] is 290 nM; in assay [3], 1840 nM.

In the case of `OC[C@@H]1[C@@H](O)[C@H](O)[C@@H](O)CN1CCCCCOCC12CC3CC(C1)CC(COCCCCCN1C[C@H](O)[C@@H](O)[C@H](O)[C@H]1CO)(C3)C2` [#ID 99], the “GAA FP% (residual FP-signal)” value in assay [1] was 5.6%. For the same molecule, the values for the IC50 in assay [2] and in assay [3] were 280 nM and 1300 nM, respectively.

For `OC[C@@H]1[C@@H](O)[C@H](O)[C@@H](O)CN1CCCC(F)(F)COCc1ccc(-c2ccccc2)cc1` [#ID 349], the “GAA FP% (residual FP-signal)” value in assay [1] worked out at 3.0%. Further, the IC50 in assay [2] was 28 nM; in assay [3], 4400 nM.

In the case of `CC(C)(C)COCCCCCN1C[C@H](O)[C@@H](O)[C@H](O)[C@@H]1CO` [#ID 26], the “GAA FP% (residual FP-signal)” value in assay [1] was found to be 23%. The IC50 was 640 nM in assay [2] and 29000 nM in assay [3].
